Data set [1] can be described thus: Pharmacokinetic study, p.o. and i.v. The class given is in vivo, mouse.
For data set [2], the system named is 5×FAD mice. The data set is described as follows: Novel object recognition in 5×FAD mice. The note with it: 5×FAD males.
Experimental: Following the first exploration of the open field arena (described above), mice were returned to the same arena the next day, while the arena now contained two identical objects. Mice were allowed to explore the objects and the arena 3 times for 10 min, with an inter trial interval of 10 min. The following day one of the objects was replaced with a novel object, and the mice were returned to the arena and allowed to explore for 10 min. Mouse movement, exploration and nuzzling was automatically recorded with an Ikegami ICD-49E camera with EthoVision 14 (Noldus Information Technology). Discrimination of the novel object was assessed by calculating (time exploring novel object−time exploring familiar object)/(time exploring novel object+time exploring familiar object).
Data set [3] concerns the target T1, QR2 (Homo sapiens, UniProt P16083).
T1 sequence (P16083 1-231): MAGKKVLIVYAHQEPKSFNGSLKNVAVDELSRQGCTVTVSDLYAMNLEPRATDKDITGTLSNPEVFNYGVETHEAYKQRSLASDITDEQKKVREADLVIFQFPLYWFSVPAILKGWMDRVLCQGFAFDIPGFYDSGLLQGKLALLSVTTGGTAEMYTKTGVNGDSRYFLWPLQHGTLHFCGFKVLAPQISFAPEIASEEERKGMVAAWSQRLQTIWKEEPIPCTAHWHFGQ
In words: Cellular thermal shift assay (CETSA) of QR2 in HEK293T cells. Format: cell-based. Set-up: endogenous in cells; host or cells: HEK293T. The procedure: The CETSA assay was performed as described (Miettinen and Björklund, 2014) with some modifications. Briefly, HEK293T cells were trypsinized (Biological Industries), washed in PBS (Sigma-Aldrich), and then suspended in PBS containing protease inhibitor cocktail (Roche). The suspended cells were then divided into two Eppendorf tubes and were treated with either: a compound or DMSO (Sigma-Aldrich) for 1 h at 37° C. under shaking. Following treatment, each sample was divided into PCR tubes (100 μL/tube) and subjected to a temperature gradient (ranging from 63 to 80° C.) for 3 minutes. Cell lysates were obtained by 3-cycles of freeze-thaw using liquid nitrogen and a thermal block set to 25° C. Samples were then centrifuged at 15,000 rpm at 4° C. for 20 min and were subsequently analyzed by western blot targeting QR2 (1:100, Santa Cruz; sc-271665). The isothermal dose response fingerprint (ITDRF) experiments were done using a constant temperature of 73° C. Band intensities were normalized to the highest concentration and superoxide dismutase 1 (SOD1) levels (1:200, Santa Cruz; sc-17767). Analysis of the results were performed according to Jafari et al., (2014) using GraphPad Prism software.
To establish direct target engagement, as well as cell membrane permeability, a cellular thermal shift assay (CETSA) was carried out (see methods), using the leading compounds YB-537, YB-800, and YB-808. Following 1 h preincubation with 5 μM of each of the compounds, or vehicle, thermal aggregation curves (Tagg) of QR2 expressed in HEK293T were measured in increasing temperatures. […] Based on the Tagg curves, the inventors selected 73° C. for isothermal dose-response fingerprint (IDTRF) experiments (FIG. 2B).

The test system of data set [4] is HEK293 cells. The data set is described as follows: DCFDA ROS measurement in HEK293 cells after H2O2 insult. Format: cell-based. To be noted: HEK293, 2 mM H2O2, 3 h. On the procedure:
FIGS. 8A-8C include vertical bar graphs showing QR2 inhibition reduces QR2 activity and ROS following induction of oxidative stress in HEK293 cells. (8A) QR2 activity is seen and is inhibited within HEK293 cells, amongst others, as measured by the rate of fluorescent co-factor oxidation. (8B) HEK293 cells seeded at 25μ 10^3 cells/well in 96-well plates were treated with 2 mM H2O2 with or without increasing doses or QR2 inhibitors for 3 h. Following incubation, the cells were stained with DCFDA for 45 min, and ROS levels were measured using a fluorimeter with ex/em 485/535 nm. N=3. (8C) ROS was measured in HCT cells, and similarly to HEK293, is reduced following QR2 inhibition. […] Data presented as mean±SEM. *p<0.05, ***p<0.0005.
The cells were harvested and resuspended in 1% clear medium (DMEM—with no phenol red, supplemented with 1% FBS, 1% L-Glutamine and 1% Penicillin-Streptomycin). A sterile poly-L-lysine-coated Nunc black, 96-well, clear flat-bottomed plate (Thermo Fisher Scientific) was seeded with 25,000 cells in 100 μL per well and incubated overnight. The next day, the medium was removed, and the wells carefully washed with PBS. […] The plate was then incubated in the dark at 37° C. for 3 h, before reading in a Tecan M200 Pro florescence microplate reader, using wavelengths Ex/Em=485 nm/535 nm.

pEC50: −log10 of the molar value. Counter-ions that a name gives are not always drawn.

The half-life is the time in which the quantity being followed falls by half. By bioavailability is commonly meant the share of a dose that reaches the circulation, judged against a reference dose that is usually intravenous. By pEC50 is commonly meant the negative decadic logarithm of the EC50, by convention in mol/L.

With `Cc1ccc(-c2cn3cccc(C)c3n2)cc1S(=O)(=O)N1CCNCC1` [YB-537, 8-methyl-2-(4-methyl-3-(piperazin-1-ylsulfonyl)phenyl)imidazo[1,2-a]pyridine hydrochloride], in data set [1] (C57BL/6J, mouse, in vivo, po, p.o. 50 mg/kg, male mice, read-out: clearance rate half-life), the half-life turned out to be 1 h. Further, in data set [1] (acute oral dosing, mouse brain), the brain clearance half-life was ~1 h. Besides, the “peak concentration in brain” value in data set [1] (male, C57BL/6J, mouse, in vivo, po) was determined as 203 ng/g. This molecule also gave a bioavailability in data set [1] (p.o. 50 mg/kg, male mice) of 82%. Further, in data set [1] (p.o., male mouse brain), the brain clearance half-life came to 1.06 h and the “time of peak in brain following p.o. administration” value is ~1 h. In data set [2], the novel object discrimination is listed as 0.06432±0.1285.

Consider `Cc1cccn2cc(-c3cccc(S(=O)(=O)N4CCC(C)CC4)c3)nc12` [YB-800], for which the “thermal stability of QR2 (thermal aggregation curve) versus vehicle” value in data set [3] (5 μM, 1 h preincubation) is “shifts of thermal stability”. In data set [3] (CETSA at 73° C., read-out: EC50 of QR2 stabilization (isothermal dose-response fingerprint)), the negative-log EC50 (pEC50) is 7.47. Moreover, the “ROS levels after ROS insult (DCFDA)” value in data set [4] is “reduced in a dose dependent manner”.

The values above are taken from patent US20240228481A1, “NOVEL SULFONAMIDE SERIES OF QR2 INHIBITORS TO TACKLE OXIDATIVE STRESS AND COGNITIVE DECLINE” (CARMEL HAIFA UNIVERSITY ECONOMIC CORPORATION LTD., priority 2021, published 2024).
